Measurements published in patent EP3212201B1, “NUCLEOSIDE KINASE INHIBITORS” (BCI Pharma, priority 2014, dated 2016).

Experiments:
Test in all cases: FRET-based coupled-enzyme protein kinase inhibition assay
Assay type in all cases: biochemical
Details in all cases: compound at 10 µM, 1% DMSO
PRKCB1 (PKC beta I) = PRKCB1 (PKC beta I) (Homo sapiens, UniProt P05771)
Description: (§1) A biochemical assay was then performed in order to measure the protein kinase inhibition. It employed a fluorescence-based coupled-enzyme format and was based on the differential sensitivity of phosphorylated and non-phosphorylated peptides to proteolytic cleavage.
(§2) Peptide substrates were labeled with two fluorophores. The two fluorohores used were coumarin (donor) and fluorecein (acceptor), and each of the peptides was bearing one at one end, and one at the other end, which made up fluorescence resonance energy transfer (FRET) pair peptides.
(§3) In a primary reaction, the FRET-peptides were submitted to a phosphorylation reaction, in which one of adenosine triphosphate (ATP)'s phosphate groups was transferred to the peptide in the presence of kinase. When kinase inhibition takes place, the peptide will not be phosphorylated. In a secondary reaction, both the phosphorylated FRET-peptides and the non-phosphorylated FRET-peptides were reacted with a development reagent. It has been observed that non-phosphorylated FRET-peptides were cleaved, whereas the phosphorylted FRET-peptide remained intact.
(§4) Cleavage disrupts FRET between the donor (i.e., coumarin) and acceptor (i.e., fluorescein) fluorophores on the FRET-peptide, whereas uncleaved, phosphorylated FRET-peptides maintain FRET. A ratiometric method, which calculates the Emission Ratio of donor emission to acceptor emission after excitation of the donor fluorophore at 400 nm, is used to quantitate reaction progress, as shown in the equation below. [formula]
(§5) A significant benefit of this ratiometric method for quantitating reaction progress is the elimination of well-to-well variations in FRET-peptide concentration and signal intensities. As a result, the assay yields very high Z'factor values (>0.7) at a low percent phosphorylation. Both cleaved and uncleaved FRET-peptides contribute to the fluorescence signals and therefore to the Emission Ratio. The extent of phosphorylation of the FRET-peptide can be calculated from the Emission Ratio. The Emission Ratio will remain low if the FRET-peptide is phosphorylated (i.e., no kinase inhibition) and will be high if the FRET-peptide is non-phosphorylated (i.e., kinase inhibition).
(§6) The Test Compounds were screened in 1% DMSO. For 10 point titrations, 3-fold serial dilutions were prepared from the starting concentration.
(§7) All Peptide/Kinase Mixtures were diluted to a 2X working concentration in the appropriate Kinase Buffer (50 mM HEPES pH 7.5, 0.01% BRIJ-35, 10 mM MgCl2, 1 mM […]).
(§8) All ATP Solutions were diluted to a 4X working concentration in Kinase Buffer. ATP Km apparent was previously determined using another assay.
The Development Reagent was diluted in Development Buffer. For 5 mL 10X Novel PKC Lipid Mix, 10X Novel PKC Lipid Mix being composed of 2 mg/ml Phosphatidyl Serine, 0.2 mg/ml DAG in 20 mM HEPES, pH 7.4, 0.3% CHAPS, 10 mg of Phosphatidyl Serine (Avanti Polar Lipids Part# 8400032C or 840039C) and 1 mg DAG (Avanti Polar Lipids Part# 800811C) were added to a glass tube.
The chloroform was removed from the lipid mixture by evaporating to a clear, thin film under a stream of nitrogen. Continuous rotation of the tube, at an angle to ensure maximum surface area of the lipid solution, has promoted the thinnest film. 5mL resuspension buffer, 20 mM HEPES, 0.3% CHAPS, pH 7.4, were added to the dried lipid mix, which was then gently heated to 50-60°C for 1-2 minutes and vortexed in short intervals until the lipids are dissolved to a clear or slightly hazy solution. The lipids were typically in solution after 2-3 heat-vortex cycles. The solution was cooled to room temperature, aliquoted into single use volumes and stored at -20 °C.
(§9) 2.5 µL - 4X Test Compound or 100 nL 100X plus 2.4 µL kinase buffer were mixed together with 2. 5 µL - 2X Peptide/Kinase Mixture and 3. 2.5 µL - 4X ATP Solution.
The solution was plate-shaked for 30 seconds, then incubated 60 minutes at room temperature for kinase reaction. […]

SRC = SRC (Homo sapiens, UniProt P12931)
Description: as §1, §2, §3, §4, §5, §6, §7, §8, §9
(§10) The solution was plate-shaked for 30 seconds, then incubated 60 minutes at room temperature for kinase reaction. 5 µL of Development Reagent Solution were then added, followed by a 30-second plate shake and a 60-minute Development Reaction incubation at room temperature. The results were read on a fluorescence plate reader and the data was analyzed.
(§11) The compounds that show the highest Emission Ratio are the ones that also show the highest protein kinase inhibition properties.

PDGFRB (PDGFR beta) = PDGFRB (PDGFR beta) (Homo sapiens, UniProt P09619)
Description: as §1, §2, §3, §4, §5, §6, §7, §8, §9, §10, §11

MAP4K4 (HGK) = MAP4K4 (HGK) (Homo sapiens, UniProt O95819)
Description: as §1, §2, §3, §4, §5, §6, §7, §8, §9, §10, §11

PLK1 = PLK1 (Homo sapiens, UniProt P53350)
Description: as §1, §2, §3, §4, §5, §6, §7, §8, §9, §10, §11

RPS6KB1 (p70S6K) = RPS6KB1 (p70S6K) (Homo sapiens, UniProt P23443)
Description: as §1, §2, §3, §4, §5, §6, §7, §8, §9, §10, §11

TEK (Tie2) = TEK (Tie2) (Homo sapiens, UniProt Q02763)
Description: as §1, §2, §3, §4, §5, §6, §7, §8, §9, §10, §11

KIT = KIT (Homo sapiens, UniProt P10721)
Description: as §1, §2, §3, §4, §5, §6, §7, §8, §9, §10, §11

PIM1 = PIM1 (Homo sapiens, UniProt P11309)
Description: as §1, §2, §3, §4, §5, §6, §7, §8, §9, §10, §11

ABL1 = ABL1 (Homo sapiens, UniProt P00519)
Description: as §1, §2, §3, §4, §5, §6, §7, §8, §9, §10, §11

MAP2K1 (MEK1) = MAP2K1 (MEK1) (Homo sapiens, UniProt Q02750)
Description: as §1, §2, §3, §4, §5, §6, §7, §8, §9, §10, §11

MAPK14 (p38 alpha) = MAPK14 (p38 alpha) (Homo sapiens, UniProt Q16539)
Description: as §1, §2, §3, §4, §5, §6, §7, §8, §9, §10, §11

EGFR (ErbB1) = EGFR (ErbB1) (Homo sapiens, UniProt P00533)
Description: as §1, §2, §3, §4, §5, §6, §7, §8, §9, §10, §11

ROCK1 = ROCK1 (Homo sapiens, UniProt Q13464)
Description: as §1, §2, §3, §4, §5, §6, §7, §8, §9, §10, §11

CSNK2A1 (CK2 alpha 1) = CSNK2A1 (CK2 alpha 1) (Homo sapiens, UniProt P68400)
Description: as §1, §2, §3, §4, §5, §6, §7, §8, §9, §10, §11

AMPK A1/B1/G1 = AMPK A1/B1/G1 (Homo sapiens, UniProt Q13131)
Description: as §1, §2, §3, §4, §5, §6, §7, §8, §9, §10, §11

FGFR1 = FGFR1 (Homo sapiens, UniProt P11362)
Description: as §1, §2, §3, §4, §5, §6, §7, §8, §9, §10, §11

MAP2K1 (MEK1), sequence (Q02750 whole entry, species assumed): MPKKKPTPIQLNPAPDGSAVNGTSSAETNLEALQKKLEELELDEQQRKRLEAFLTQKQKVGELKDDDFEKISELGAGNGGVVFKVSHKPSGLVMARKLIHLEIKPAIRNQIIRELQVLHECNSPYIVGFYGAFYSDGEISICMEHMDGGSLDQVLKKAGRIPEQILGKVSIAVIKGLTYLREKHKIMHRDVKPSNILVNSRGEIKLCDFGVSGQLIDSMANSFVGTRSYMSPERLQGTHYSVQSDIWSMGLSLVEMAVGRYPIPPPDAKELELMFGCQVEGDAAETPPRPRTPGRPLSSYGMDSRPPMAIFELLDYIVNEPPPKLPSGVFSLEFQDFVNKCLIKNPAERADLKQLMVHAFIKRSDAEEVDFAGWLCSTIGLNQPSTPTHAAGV
TEK (Tie2), sequence (Q02763 23-1124, species assumed): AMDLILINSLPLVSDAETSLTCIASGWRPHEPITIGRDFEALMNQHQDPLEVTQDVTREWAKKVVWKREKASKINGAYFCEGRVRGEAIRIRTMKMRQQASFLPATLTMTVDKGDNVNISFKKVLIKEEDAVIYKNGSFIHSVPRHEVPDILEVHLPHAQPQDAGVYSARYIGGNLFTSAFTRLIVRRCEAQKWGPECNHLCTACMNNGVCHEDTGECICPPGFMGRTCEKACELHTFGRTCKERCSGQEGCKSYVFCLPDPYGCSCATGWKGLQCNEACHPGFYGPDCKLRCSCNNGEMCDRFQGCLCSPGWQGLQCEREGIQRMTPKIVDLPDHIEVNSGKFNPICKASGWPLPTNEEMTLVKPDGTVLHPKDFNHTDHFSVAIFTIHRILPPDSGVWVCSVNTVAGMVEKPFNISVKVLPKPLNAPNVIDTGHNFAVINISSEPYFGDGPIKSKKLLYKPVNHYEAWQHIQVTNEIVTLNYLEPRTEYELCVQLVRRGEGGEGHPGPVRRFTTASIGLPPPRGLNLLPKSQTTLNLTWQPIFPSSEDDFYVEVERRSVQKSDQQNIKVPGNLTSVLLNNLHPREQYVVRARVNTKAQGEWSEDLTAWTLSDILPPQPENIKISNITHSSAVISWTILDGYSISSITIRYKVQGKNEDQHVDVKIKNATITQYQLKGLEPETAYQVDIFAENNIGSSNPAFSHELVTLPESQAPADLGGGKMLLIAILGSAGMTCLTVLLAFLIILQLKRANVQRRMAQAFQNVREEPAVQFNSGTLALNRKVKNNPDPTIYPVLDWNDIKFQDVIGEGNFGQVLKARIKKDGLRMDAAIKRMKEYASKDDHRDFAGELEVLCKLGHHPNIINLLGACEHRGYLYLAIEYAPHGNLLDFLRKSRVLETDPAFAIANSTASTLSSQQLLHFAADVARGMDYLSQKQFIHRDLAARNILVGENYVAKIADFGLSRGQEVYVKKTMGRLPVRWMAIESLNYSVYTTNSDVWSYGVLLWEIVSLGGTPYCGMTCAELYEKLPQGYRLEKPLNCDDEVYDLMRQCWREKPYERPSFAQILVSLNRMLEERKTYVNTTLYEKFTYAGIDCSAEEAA
EGFR (ErbB1), sequence (P00533 25-1210, species assumed): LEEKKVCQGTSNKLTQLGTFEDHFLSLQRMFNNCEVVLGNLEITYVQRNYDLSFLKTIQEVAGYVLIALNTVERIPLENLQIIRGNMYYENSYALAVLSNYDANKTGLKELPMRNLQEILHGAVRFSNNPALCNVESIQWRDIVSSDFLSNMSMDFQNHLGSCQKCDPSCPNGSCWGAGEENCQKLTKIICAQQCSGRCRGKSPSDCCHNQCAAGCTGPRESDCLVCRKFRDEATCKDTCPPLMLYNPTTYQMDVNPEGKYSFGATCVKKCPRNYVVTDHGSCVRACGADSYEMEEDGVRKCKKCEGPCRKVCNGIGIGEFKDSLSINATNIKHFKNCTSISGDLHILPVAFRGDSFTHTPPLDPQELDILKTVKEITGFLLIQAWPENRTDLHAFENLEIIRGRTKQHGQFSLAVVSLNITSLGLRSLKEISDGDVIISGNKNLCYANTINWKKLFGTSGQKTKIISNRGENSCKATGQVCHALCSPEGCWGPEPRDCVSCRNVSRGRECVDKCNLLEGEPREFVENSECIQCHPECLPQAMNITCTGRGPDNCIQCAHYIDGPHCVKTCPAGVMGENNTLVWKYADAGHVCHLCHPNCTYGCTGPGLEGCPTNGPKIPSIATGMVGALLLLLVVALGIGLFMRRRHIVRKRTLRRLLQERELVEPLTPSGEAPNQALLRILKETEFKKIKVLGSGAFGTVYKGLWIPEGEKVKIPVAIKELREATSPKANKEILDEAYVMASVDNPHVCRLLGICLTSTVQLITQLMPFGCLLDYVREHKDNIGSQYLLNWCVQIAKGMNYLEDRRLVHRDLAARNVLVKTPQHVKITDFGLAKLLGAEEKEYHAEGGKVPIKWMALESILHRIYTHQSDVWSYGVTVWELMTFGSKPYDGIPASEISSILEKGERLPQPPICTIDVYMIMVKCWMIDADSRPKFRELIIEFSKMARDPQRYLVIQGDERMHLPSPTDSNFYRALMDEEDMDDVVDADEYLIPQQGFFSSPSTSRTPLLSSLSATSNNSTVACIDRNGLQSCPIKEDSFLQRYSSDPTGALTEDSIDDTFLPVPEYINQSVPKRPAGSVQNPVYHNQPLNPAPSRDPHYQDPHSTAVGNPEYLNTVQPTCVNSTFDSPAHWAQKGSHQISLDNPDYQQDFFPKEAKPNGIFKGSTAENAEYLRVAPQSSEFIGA
SRC, sequence (P12931 whole entry, species assumed): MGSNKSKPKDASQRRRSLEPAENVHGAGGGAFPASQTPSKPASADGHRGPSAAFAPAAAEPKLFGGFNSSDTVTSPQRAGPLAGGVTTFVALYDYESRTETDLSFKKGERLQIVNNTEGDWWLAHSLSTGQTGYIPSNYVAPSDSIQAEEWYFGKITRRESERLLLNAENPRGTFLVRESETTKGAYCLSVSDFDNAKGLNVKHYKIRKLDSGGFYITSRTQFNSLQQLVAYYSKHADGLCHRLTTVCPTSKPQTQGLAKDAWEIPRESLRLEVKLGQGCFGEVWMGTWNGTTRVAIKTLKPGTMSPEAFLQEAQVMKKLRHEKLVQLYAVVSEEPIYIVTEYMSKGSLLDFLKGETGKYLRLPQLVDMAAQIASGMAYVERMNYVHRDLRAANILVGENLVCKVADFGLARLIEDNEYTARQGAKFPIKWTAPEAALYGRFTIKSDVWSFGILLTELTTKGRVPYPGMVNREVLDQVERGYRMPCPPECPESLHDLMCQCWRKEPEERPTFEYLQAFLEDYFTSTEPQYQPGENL
CSNK2A1 (CK2 alpha 1), sequence (P68400 whole entry, species assumed): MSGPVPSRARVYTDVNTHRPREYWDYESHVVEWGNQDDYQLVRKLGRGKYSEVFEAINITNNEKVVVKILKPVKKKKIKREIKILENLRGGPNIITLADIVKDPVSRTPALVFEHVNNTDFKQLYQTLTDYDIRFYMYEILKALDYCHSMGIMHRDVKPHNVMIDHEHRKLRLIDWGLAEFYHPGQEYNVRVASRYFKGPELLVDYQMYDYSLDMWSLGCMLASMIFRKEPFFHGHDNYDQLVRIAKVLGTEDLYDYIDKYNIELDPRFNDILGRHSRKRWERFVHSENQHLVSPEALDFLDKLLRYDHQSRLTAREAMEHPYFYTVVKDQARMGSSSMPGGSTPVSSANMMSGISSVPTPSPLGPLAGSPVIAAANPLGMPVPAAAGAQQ
ROCK1, sequence (Q13464 whole entry, species assumed): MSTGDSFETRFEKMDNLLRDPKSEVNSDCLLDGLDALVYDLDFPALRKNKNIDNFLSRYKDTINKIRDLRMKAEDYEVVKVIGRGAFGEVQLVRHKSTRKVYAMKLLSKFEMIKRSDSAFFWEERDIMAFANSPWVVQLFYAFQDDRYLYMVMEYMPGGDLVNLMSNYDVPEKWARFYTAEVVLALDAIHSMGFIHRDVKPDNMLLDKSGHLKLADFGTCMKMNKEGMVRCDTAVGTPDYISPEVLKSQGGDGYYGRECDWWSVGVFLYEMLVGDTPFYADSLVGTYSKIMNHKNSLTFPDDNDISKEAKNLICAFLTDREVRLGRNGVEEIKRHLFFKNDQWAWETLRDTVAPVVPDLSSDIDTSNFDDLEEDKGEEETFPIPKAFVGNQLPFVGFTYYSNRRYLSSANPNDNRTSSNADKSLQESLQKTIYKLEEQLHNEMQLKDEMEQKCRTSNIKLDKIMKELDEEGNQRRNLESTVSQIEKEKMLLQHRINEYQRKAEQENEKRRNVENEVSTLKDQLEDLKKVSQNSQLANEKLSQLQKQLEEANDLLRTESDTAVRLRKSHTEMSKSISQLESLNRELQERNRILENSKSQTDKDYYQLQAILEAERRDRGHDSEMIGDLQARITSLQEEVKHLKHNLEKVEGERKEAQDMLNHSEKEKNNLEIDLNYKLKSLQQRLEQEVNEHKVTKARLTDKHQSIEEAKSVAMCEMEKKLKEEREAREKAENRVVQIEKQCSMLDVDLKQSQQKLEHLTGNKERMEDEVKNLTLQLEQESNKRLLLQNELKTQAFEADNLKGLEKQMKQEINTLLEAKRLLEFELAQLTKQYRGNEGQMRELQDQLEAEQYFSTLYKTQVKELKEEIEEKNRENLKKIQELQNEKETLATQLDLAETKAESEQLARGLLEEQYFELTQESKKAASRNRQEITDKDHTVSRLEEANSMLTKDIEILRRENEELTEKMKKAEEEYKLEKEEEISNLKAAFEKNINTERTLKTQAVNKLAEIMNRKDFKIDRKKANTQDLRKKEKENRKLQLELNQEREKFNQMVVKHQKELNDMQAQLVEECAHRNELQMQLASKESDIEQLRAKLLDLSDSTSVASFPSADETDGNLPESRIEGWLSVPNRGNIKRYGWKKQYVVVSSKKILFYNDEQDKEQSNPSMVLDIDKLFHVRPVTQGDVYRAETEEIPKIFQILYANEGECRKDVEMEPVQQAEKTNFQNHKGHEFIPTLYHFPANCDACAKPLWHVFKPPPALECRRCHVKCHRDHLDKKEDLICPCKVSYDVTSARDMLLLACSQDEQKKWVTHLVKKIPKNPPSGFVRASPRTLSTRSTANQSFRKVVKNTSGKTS

| SMILES | inhibition at 10 µM (PRKCB1 (PKC beta I)) [%] | inhibition at 10 µM (SRC) [%] | inhibition at 10 µM (PDGFRB (PDGFR beta)) [%] | inhibition at 10 µM (MAP4K4 (HGK)) [%] | inhibition at 10 µM (PLK1) [%] | inhibition at 10 µM (RPS6KB1 (p70S6K)) [%] | inhibition at 10 µM (TEK (Tie2)) [%] | inhibition at 10 µM (KIT) [%] | inhibition at 10 µM (PIM1) [%] | inhibition at 10 µM (ABL1) [%] | inhibition at 10 µM (MAP2K1 (MEK1)) [%] | inhibition at 10 µM (MAPK14 (p38 alpha)) [%] | inhibition at 10 µM (EGFR (ErbB1)) [%] | inhibition at 10 µM (ROCK1) [%] | inhibition at 10 µM (CSNK2A1 (CK2 alpha 1)) [%] | inhibition at 10 µM (AMPK A1/B1/G1) [%] | inhibition at 10 µM (FGFR1) [%] |
| --- | --- | --- | --- | --- | --- | --- | --- | --- | --- | --- | --- | --- | --- | --- | --- | --- | --- |
| Nc1ncnc2c1ncn2[C@@H]1O[C@H](COC(=O)NCCCc2nc3ccccc3[nH]2)[C@@H](O)[C@H]1O [Compound C1] | 6 | 46 | 1 | 17 | -8 | 15 | 3 | 10 | -2 | 13 | 11 | -3 | 34 | 18 | -5 | 17 | 21 |
| C[C@@H](NC(=O)OC[C@H]1O[C@@H](n2cnc3c(N)ncnc32)[C@H](O)[C@@H]1O)c1ccc(Cl)cc1 [Compound C4] | -1 | 33 | 5 | 16 | -3 | 22 | 12 | 20 | -8 | 11 | 4 | -1 | 22 | -7 | 8 | 17 | 6 |
| Nc1ncnc2c1ncn2[C@@H]1O[C@H](COC(=O)NC[C@H](O)CO)[C@@H](O)[C@H]1O [Compound C8] | -11 | -13 | 5 | 9 | -1 | 11 | -3 | 28 | 11 | 22 | 10 | -3 | 14 | 2 | 5 | 17 | 26 |
| Nc1ncnc2c1ncn2[C@@H]1O[C@H](COC(=O)N2CCC[C@H]2CO)[C@@H](O)[C@H]1O [Compound C9] | -6 | 16 | -1 | -2 | -1 | 3 | -4 | -3 | 3 | -2 | -3 | -4 | -2 | -10 | 5 | 4 | 3 |
| Nc1ncnc2c1ncn2[C@@H]1O[C@H](COC(=O)N[C@@H]2CCN(Cc3ccccc3)C2)[C@@H](O)[C@H]1O [Compound C10] | 5 | 25 | 7 | 8 | -13 | 5 | 6 | 7 | 1 | 10 | 0 | 6 | 27 | -2 | 2 | 11 | 20 |
| Nc1ncnc2c1ncn2[C@@H]1O[C@H](COC(=O)N2CCN(Cc3ccccc3)CC2CO)[C@@H](O)[C@H]1O (stereo partly drawn) [Compound C13] | 7 | 29 | 6 | -5 | -12 | 10 | 5 | 18 | 1 | 0 | 1 | 0 | 8 | -7 | 3 | 6 | 5 |
| CC(C)N1CCC(NC(=O)OC[C@H]2O[C@@H](n3cnc4c(N)ncnc43)[C@H](O)[C@@H]2O)CC1 [Compound C19] | 4 | -1 | 6 | 17 | -6 | 3 | 6 | -1 | -7 | -3 | -2 | -1 | 17 | 2 | 5 | 5 | 6 |
| Nc1ncnc2c1ncn2[C@@H]1O[C@H](COC(=O)NCCN2CCCC2=O)[C@@H](O)[C@H]1O [Compound C22] | -8 | 12 | 4 | 17 | -5 | 0 | 0 | 3 | -6 | -5 | -3 | -1 | 11 | -7 | 2 | 4 | 0 |
| Nc1ncnc2c1ncn2[C@@H]1O[C@H](COC(=O)N2CCN(CCc3ccccc3)CC2)[C@@H](O)[C@H]1O [Compound C26] | 0 | 29 | 1 | 17 | -8 | 8 | -4 | 6 | -5 | 2 | 4 | -6 | 13 | -12 | 3 | 3 | 9 |
